Experimental data as given in patent US7635592B2, “Tissue engineering scaffolds promoting matrix protein production” (Rice University, priority 2000, dated 2009).

Legend:
[1] = tested on: Auricular chondrocytes; assay: Matrix production in the presence of ascorbic acid, auricular chondrocytes; type: cell-based
Procedure: (§1) Aortic smooth muscle cells and auricular chondrocytes were grown on tissue culture polystyrene with and without 50 μg/ml ascorbic acid added to the media. ECM protein production by the cells over a 2-day time period was determined by examining the amount of ^3H-glycine incorporated into the ECM elaborated by the cells.

[2] = tested on: Aortic smooth muscle cells; assay: Matrix production in the presence of ascorbic acid, aortic smooth muscle cells; type: cell-based; conditions: SMCs
Procedure: as §1

[3] = tested on: SMCs; assay: Matrix protein production on peptide-modified glass surfaces (3H-glycine incorporation into ECM); type: cell-based, Wistar-Kyoto rats; conditions: for increase in matrix production per cell over that produced when no TGF-β was added: 0.04 pmol/ml (1 ng/ml) soluble TGF-β in the media, 2 days
From the text: (§2) Chemicals were obtained from Sigma Chemical Co. (St. Louis, Mo.) unless otherwise stated. SMCs from the thoracic aorta of Wistar-Kyoto rats were isolated and characterized as previously described by Scott-Burden, et al., Hypertension 13:295-305 (1989). Human aortic smooth muscle cells (HASMCs) were obtained from Clonetics (San Diego, Calif.). Both SMCs and HASMCs were maintained on Minimal Essential Medium Eagle supplemented with 10% fetal bovine serum (FBS; BioWhittaker, Walkersville, Md.), 2 mM L-glutamine, 500 units penicillin and 100 mg/l streptomycin (MEM). Cells were incubated at 37° C. in a 5% CO2 environment.
Peptides used in this study were RGDS (SEQ ID NO:1), VAPG (SEQ ID NO:2), and KQAGDV (SEQ ID NO:3) (Research Genetics, Huntsville, Ala.). RGES (SEQ ID NO:4) was used as a non-adhesive control peptide. The peptides were acetylated and coupled to aminophase glass slides as previously described by Mann, et al., Biomaterials 20:2281-2286 (1999). Briefly, aminophase slides were prepared by incubating glass slides with 3-aminopropyltriethoxysilane in dry acetone at 37° C. overnight. Acetylated peptides were then coupled to the slides using 1-ethyl-3-(3-dimethylaminopropyl) carbodiimide (EDAC) chemistry. Slides were sterilized under UV light overnight prior to use.
Matrix protein production was evaluated as previously described by Mann (1999). Suspensions of SMCs were prepared in MEM supplemented with 5 μg/ml ascorbic acid at a concentration of 40,000 cells/ml. For samples receiving TGF-β, 0.04 pmol/ml (1 ng/ml) unmodified TGF-β or 0.04 pmol/ml acryloyl-PEG-TGF-β was added to the media. Cell suspensions to be used for measurement of ECM protein production were also supplemented with 1 μCi/ml ^3H-glycine (40 Ci/mmol). The glass slides were attached to FlexiPerm strips in QuadriPerm Cell Culture Vessels (Heraeus, Osterode am Harz, Germany) to create eight wells (1.11×0.79×0.79 cm) on each slide. Four of the wells on each slide were utilized to measure ECM production, while the remaining four wells were utilized for cell number determination and were cultured in the absence of ^3H-glycine. Cell number was determined after 2 days of culture by preparing single cell suspensions using trypsin and counting cells using a Coulter counter (Multisizer #0646, Coulter Electronics, Hialeah, Fla.).
To evaluate synthesis of ECM proteins, the cell growth media was supplemented with ^3H-glycine, as described above. Two days following ^3H-glycine addition, cells were removed non-enzymatically with 25 mM ammonium hydroxide, then rinsed with 70% ethanol and dried. This process leaves intact the ECM elaborated by cells during culture (Jones, et al., Proc. natl. Acad. Sci. USA 76:353-357 (1979)). Sequential enzyme digestion was used as previously described by Mann (1999) to determine the gross composition of the ECM proteins. Briefly, the ECM was digested first with trypsin, followed by elastase, and then collagenase. After the final enzymatic digestion, any material remaining on the substrate was dissolved by incubation with 1 N NaOH. Aliquots were taken from each step of the digest for scintillation counting.

[4] = tested on: Aortic smooth muscle cells; assay: Dose response of aortic smooth muscle cells to TGF-β on RGDS-coupled aminophase glass; type: cell-based
Procedure: Aortic smooth muscle cells were grown on aminophase glass that had 0.5 nmol/cm^2 RGDS (SEQ ID NO:1) covalently coupled to the glass. TGF-β was added to the media at 0, 1, or 5 ng/ml (0, 4×10^−5, 2×10^−4 nmol/ml). ECM protein production by the cells over a 2-day time period was determined by examining the amount of ^3H-glycine incorporated into the ECM elaborated by the cells.

[5] = tested on: SMCs; assay: DNA and hydroxyproline determination in RGDS-containing PEG hydrogels seeded with SMCs; type: cell-based, Wistar-Kyoto rats; conditions: 0.04 pmol/ml, 7 days of culture
From the text: as §2, with “environment. […]” for “environment.”
After 7 days of culture, hydrogels were removed from the culture media, weighed, and digested with 1 ml 0.1 N NaOH overnight at 37° C. […] DNA content of the digested, neutralized hydrogels was determined using a fluorescent DNA binding dye, Hoechst 33258 (Molecular Probes, Eugene, Oreg.). Fluorescence of the samples was determined using a fluorometer (VersaFluor, Bio-Rad Laboratories, Hercules, Calif.) with excitation filter at 360 nm and emission filter at 460 nm, and compared to fluorescence of calf thymus DNA standards.
Hydroxyproline concentration was determined by oxidation with chloramine T (ICN Biomedicals, Aurora, Ohio) and development with p-dimethylaminobenzaldehyde (ICN Biomedicals) (Woessner, et al. Arch. Biochem. Biophys. 93:440-447 (1961)). […]

[6] = tested on: Auricular chondrocytes; assay: Dose response of auricular chondrocytes to TGF-β on tissue culture polystyrene; type: cell-based
Procedure: Auricular chondrocytes were grown on tissue culture polystyrene with varying amounts of TGF-β added to the media: 0, 1, 5, 10, 25, or 100 ng/ml. ECM protein production by the cells over a 2-day time period was determined by examining the amount of ^3H-glycine incorporated into the ECM elaborated by the cells.

[7] = 50 μg/ml ascorbic acid in the media, 2 days
[8] = 50 μg/ml ascorbic acid, over 2 days
[9] = RGDS-modified glass surfaces, 0.04 pmol/ml in the media

Row | Compound | ECM protein production per cell [1, 7] | cell numbers (proliferation) [1, 8] | ECM protein production per cell [2, 7] | cell numbers (proliferation) [2, 8] | matrix production compared with absence of TGF-β [3, 9] | matrix production compared with unmodified TGF-β [3, 9] | cell numbers (proliferation) ([4]; TGF-β 1 or 5 ng/ml, over 2 days) | ECM protein production per cell (% of control) ([4]; TGF-β in the media at both 1 and 5 ng/ml, 2 days) | optimal concentrations to induce ECM production ([4]; aortic smooth muscle cells) | increase in matrix production per cell over that produced when no TGF-β was added ([3]; KQAGDV surfaces) [%] | matrix production compared with the non-adhesive control (RGES) ([3]; RGDS and KQAGDV modified surfaces, 1 ng/ml TGF-β in the media) | increase in matrix production per cell over that produced when no TGF-β was added ([3]; RGDS surfaces) [%] | increase in matrix production per cell over that produced when no TGF-β was added ([3]; VAPG surfaces) [%] | hydroxyproline (collagen) production compared with no TGF-β [5] | ECM protein production per cell ([6]; TGF-β in the media at concentrations above 1 ng/ml, 2 days) | cell numbers (proliferation) ([6]; TGF-β up to 100 ng/ml, over 2 days) | optimal concentration for ECM protein production per cell ([6]; auricular chondrocytes, 2 days) [ng/mL]
1 | O=C1O[C@H]([C@@H](O)CO)C(O)=C1O [ascorbic acid] | increased | did not increase | increased | did not increase |  |  |  |  |  |  |  |  |  |  |  |  | 
2 | acryloyl-PEG-TGF-β [polymer-conjugated TGF-β] |  |  |  |  | greater amounts of matrix | less matrix was produced |  |  |  |  |  |  |  |  |  |  | 
3 | transforming growth factor-beta [TGF-β] |  |  |  |  | greater amounts of matrix |  | did not increase | increased | one and five | 104 | increased over that seen with the non-adhesive control | 224 | 20 | More hydroxyproline | increased | did not increase | 25
